Measured values: US12371426B2, “Pyridazine derivatives as SMARCA2/4 degraders” (Aurigene Discovery Technologies Limited, priority 2018, dated 2025)
pIC50: −log10 of the molar value.

Legend:
Assay type in all cases: cell-based
SMARCA2 [1] = molecular target: T1, SMARCA2 (Homo sapiens, UniProt P51531); assay: SMARCA2 degradation in H929 cells by Western blot; set-up: endogenous in cells; conditions: 16 hours
Procedure: (§1) Determination of SMARCA2 and SMARCA4 Degradation in H929 Cells by Western Blot:
(§2) NCI-H929 (ATCC CRL-9068) was plated in 6 well plates using complete RPMI-1640 media. Next day, compounds of present invention were added to cells from 10 mM stocks made in DMSO (Sigma Cat no. D2650). Each concentration of compound was tested with DMSO not exceeding final percentage of 0.3 in the cells. Cells were incubated with the compound for 16 hours followed by harvesting with 1× RIPA lysis buffer (Thermo Fischer, catalogue number #89900) containing protease inhibitor cocktail (Sigma catalogue number #P-8340). Equal amount of protein was loaded on SDS PAGE gel for electrophoresis. Western blot was carried out for detection of either SMARCA2 (Cell signaling technologies, catalogue number #11966) or SMARCA4 antibody (Cell signaling technologies, catalogue number #49360). Beta Actin (Santa Cruz, catalogue number #69879) was used as loading control. Percentage of SMARCA2 or SMARCA4 degradation was calculated using formula % Degradation=100−(normalized band intensity in treated sample/normalized band intensity in DMSO sample)*100.
(§3) Selected compounds of the present invention were screened in the above mentioned assay procedures for determination of % SMARCA2 and SMARCA4 degradation 100 nM and the results are summarized in below table 30.

NCI-H929 cells = assay: Anti proliferative activity in NCI-H929 cell line by Cell Titer Glo assay; conditions: Homo sapiens, 72 h, 3 days compound incubation, CellTiter Glo, read-out: Anti-proliferative activity IC50 group (NCI-H929 cells)
Procedure: Determination of Anti Proliferative Activity of Compounds in NCI-H929 and NCI-H838 Cell Lines by Cell Titer Glo® (promega) assay:
NCI-H929 (ATCC CRL-9068) or NCI-H838 (ATCC CRL-5844) cells were seeded in 96 well plate flat black clear bottom plates (Corning, Cat. No 3904) using complete RPMI-1640 media. Next day, compounds listed in the present invention were added to cells from 10 mM stocks made in DMSO (Sigma Cat no. D2650). Each concentration of compound was tested in triplicate with DMSO concentration at a final percentage not exceeding 0.3 in the cells. After the compound incubation (3 days for H929 and 8 days for H838) assay was terminated using 50 μl of CellTiter Glo® reagent (Promega, Cat. no G7572). CellTiter Glo® Luminescent reagent determines the number of viable cells based on quantitation of ATP present which is an indicator of cell number and metabolic activity. Luminescence readings were taken in Victor-3 instrument. Percent inhibition of proliferation was calculated using formula, % inhibition=100−(luminescence value of test/luminescence value of DMSO control)*100. DMSO control (0%)=Cells in complete media with DMSO; blank=Media alone containing DMSO. IC50 was calculated using graph pad prism software.
Herein group “A” refers to IC50 value lower than 1 μM, “B” refers to IC50 value between 1-10 μM (both inclusive) and “C” refers to IC50 value higher than 10 μM or less than 50% activity at 10 μM.

SMARCA4 = molecular target: T2, SMARCA4 (Homo sapiens, UniProt P51532); assay: SMARCA4 degradation in H929 cells by Western blot; conditions: 16 hours; for SMARCA4 percent degradation at 0.1 µM: NCI-H929, 100 nM
T2 construct: endogenous in cells; host or cells: NCI-H929 (ATCC CRL-9068)
T2 sequence (P51532 whole entry): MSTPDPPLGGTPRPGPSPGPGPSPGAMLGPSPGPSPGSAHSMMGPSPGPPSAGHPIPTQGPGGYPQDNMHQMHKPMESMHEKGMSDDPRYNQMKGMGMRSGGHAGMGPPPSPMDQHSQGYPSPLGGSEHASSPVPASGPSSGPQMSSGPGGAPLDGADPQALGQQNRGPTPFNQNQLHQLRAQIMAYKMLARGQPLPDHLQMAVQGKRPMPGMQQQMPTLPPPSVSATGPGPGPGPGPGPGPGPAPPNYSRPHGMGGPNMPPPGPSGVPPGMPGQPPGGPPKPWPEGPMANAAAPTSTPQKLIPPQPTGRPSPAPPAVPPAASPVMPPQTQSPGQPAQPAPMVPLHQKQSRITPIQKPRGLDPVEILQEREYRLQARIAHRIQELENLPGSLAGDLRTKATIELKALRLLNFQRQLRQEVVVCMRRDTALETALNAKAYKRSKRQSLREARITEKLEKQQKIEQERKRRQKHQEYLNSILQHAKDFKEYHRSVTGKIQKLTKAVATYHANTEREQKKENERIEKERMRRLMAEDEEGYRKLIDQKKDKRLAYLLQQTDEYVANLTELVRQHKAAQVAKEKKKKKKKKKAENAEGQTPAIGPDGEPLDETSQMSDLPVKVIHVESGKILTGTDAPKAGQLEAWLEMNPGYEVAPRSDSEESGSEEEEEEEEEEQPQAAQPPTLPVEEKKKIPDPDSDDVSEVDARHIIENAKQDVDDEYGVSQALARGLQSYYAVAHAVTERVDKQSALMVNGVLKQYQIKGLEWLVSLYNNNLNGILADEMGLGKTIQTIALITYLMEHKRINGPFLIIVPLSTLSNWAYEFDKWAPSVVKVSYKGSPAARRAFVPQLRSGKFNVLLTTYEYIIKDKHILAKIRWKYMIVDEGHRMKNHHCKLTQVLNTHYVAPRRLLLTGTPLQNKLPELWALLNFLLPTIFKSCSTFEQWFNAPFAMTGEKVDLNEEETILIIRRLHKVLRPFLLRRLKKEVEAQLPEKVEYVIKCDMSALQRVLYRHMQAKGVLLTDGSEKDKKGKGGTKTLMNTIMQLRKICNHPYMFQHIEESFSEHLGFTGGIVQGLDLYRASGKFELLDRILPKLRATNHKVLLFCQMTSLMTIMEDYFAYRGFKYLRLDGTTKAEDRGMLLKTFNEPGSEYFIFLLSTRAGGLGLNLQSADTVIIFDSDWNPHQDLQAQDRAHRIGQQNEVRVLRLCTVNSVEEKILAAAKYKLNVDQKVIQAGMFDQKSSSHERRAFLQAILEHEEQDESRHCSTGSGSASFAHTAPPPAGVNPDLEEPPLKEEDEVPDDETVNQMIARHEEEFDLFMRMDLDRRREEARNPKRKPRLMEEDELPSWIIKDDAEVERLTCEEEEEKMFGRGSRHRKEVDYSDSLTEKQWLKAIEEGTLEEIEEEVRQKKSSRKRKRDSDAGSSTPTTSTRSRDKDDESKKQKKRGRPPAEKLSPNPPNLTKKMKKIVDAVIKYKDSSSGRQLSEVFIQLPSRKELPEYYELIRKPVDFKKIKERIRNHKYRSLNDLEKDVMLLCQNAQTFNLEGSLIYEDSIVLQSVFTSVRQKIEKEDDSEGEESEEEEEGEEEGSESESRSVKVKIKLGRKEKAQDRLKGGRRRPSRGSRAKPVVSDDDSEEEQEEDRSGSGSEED
Procedure: as §1, §2, §3

SMARCA2 [2] = molecular target: T1, SMARCA2; assay: SMARCA2 degradation in NCI-H838 cells by Western blot; set-up: endogenous in cells; host or cells: NCI-H838 (ATCC CRL-5844); conditions: 16 hours
Procedure: Determination of SMARCA2 Degradation in NCI-1H838 Cells by Western Blot:
NCI-1H838 (ATCC CRL-5844) was plated in 6 well plates using complete RPMI-1640 media. Next day, compounds of present invention were added to cells from 10 mM stocks made in DMSO (Sigma Cat no. D2650). Each concentration of compound was tested with DMSO concentration not exceeding a final percentage of 0.3 in the cells. Cells were incubated with the compound for 16 hours followed by harvesting with 1× RIPA lysis buffer (Thermo Fischer, catalogue number #89900) containing protease inhibitor cocktail (Sigma catalogue number #P-8340). Equal amount of protein was loaded on SIDS PAGE gel for electrophoresis. Western blot was carried out for detection of SMARCA2 with antibody (Cell signaling technologies, catalogue number #11966). Beta Actin (Santa Cruz, catalogue number #69879) was used as loading control. Percentage of SMARCA2 degradation was calculated using formula % degradation=100−(normalized band intensity in treated sample/normalized band intensity in DMSO sample)*100”.
Selected compounds of the present invention were screened in the above mentioned assay procedures for determination of % SMARCA2 degradation at 100 nM and the results are summarized in below table 31.

T1 sequence (P51531 whole entry): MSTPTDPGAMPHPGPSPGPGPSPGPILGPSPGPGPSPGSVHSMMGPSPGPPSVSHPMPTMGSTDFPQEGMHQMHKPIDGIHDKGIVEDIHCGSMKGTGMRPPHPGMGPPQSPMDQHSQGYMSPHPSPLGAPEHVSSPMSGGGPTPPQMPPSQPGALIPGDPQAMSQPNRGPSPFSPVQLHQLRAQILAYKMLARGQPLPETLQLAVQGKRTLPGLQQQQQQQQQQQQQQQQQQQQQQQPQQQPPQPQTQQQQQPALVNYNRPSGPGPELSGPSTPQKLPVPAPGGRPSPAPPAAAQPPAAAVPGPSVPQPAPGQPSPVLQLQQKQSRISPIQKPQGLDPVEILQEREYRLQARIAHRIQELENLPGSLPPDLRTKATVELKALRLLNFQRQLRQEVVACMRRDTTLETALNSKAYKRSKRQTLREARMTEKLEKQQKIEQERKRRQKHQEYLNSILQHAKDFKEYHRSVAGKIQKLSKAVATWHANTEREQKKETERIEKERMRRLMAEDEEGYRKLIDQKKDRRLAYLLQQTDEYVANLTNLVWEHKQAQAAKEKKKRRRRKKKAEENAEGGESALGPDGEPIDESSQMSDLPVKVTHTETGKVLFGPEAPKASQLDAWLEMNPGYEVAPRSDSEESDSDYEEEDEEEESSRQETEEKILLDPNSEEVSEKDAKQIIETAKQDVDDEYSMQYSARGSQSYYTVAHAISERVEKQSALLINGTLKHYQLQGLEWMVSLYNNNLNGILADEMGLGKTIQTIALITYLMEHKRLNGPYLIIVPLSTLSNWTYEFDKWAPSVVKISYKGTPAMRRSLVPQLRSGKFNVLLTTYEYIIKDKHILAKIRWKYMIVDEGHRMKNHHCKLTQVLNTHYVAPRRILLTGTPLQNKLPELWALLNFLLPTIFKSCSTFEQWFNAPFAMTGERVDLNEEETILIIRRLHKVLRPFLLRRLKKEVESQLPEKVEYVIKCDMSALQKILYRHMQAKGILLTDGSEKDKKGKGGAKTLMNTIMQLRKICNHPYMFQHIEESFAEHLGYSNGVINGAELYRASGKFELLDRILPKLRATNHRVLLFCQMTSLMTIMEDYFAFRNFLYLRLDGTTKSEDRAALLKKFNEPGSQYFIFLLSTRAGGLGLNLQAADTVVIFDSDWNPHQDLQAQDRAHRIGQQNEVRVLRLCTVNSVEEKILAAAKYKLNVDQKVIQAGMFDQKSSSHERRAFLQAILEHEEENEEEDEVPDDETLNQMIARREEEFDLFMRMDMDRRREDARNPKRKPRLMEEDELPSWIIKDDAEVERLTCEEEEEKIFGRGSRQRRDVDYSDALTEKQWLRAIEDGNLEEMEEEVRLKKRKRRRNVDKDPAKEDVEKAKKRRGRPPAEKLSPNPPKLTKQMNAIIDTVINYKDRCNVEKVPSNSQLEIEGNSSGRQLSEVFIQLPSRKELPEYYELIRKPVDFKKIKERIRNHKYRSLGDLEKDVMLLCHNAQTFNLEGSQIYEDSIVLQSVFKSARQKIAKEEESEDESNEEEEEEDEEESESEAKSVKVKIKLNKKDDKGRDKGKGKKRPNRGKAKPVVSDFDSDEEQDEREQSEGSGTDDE

Cc1ncsc1-c1ccc([C@H](C)NC(=O)[C@@H]2C[C@@H](O)CN2C(=O)[C@@H](NC(=O)C(C)N2CCN(c3cc(-c4ccccc4O)nnc3N)CC2)C(C)(C)C)cc1 (single isomer, unassigned) [Compound 57]
SMARCA2 Percent degradation @ 100 nM (SMARCA2 [1]): 79.6%
pIC50 (NCI-H929 cells): > 6.00

Cc1ncsc1-c1ccc([C@H](C)NC(=O)[C@@H]2C[C@@H](O)CN2C(=O)[C@@H](NC(=O)C(C)C2CCN(c3cc(-c4cccc(F)c4O)nnc3N)CC2)C(C)(C)C)cc1 (single isomer, unassigned) [Compound 84]
SMARCA2 Percent degradation @ 100 nM (SMARCA2 [1]): 58%

Cc1ncsc1-c1ccc([C@H](C)NC(=O)[C@@H]2C[C@@H](O)CN2C(=O)[C@@H](NC(=O)CCCCCCC(=O)N2CCN(c3cc(-c4ccccc4O)nnc3N)CC2)C(C)(C)C)cc1 [Compound 37]
SMARCA2 Percent degradation @ 100 nM (SMARCA2 [1]): 96%
pIC50 (NCI-H929 cells): > 6.00

Cc1ncsc1-c1ccc([C@H](C)NC(=O)[C@@H]2C[C@@H](O)CN2C(=O)[C@@H](NC(=O)CCCCCCCCCC(=O)N2CCN(c3cc(-c4ccccc4O)nnc3N)CC2)C(C)(C)C)cc1 [Compound 38]
SMARCA2 Percent degradation @ 100 nM (SMARCA2 [1]): 99%
pIC50 (NCI-H929 cells): 5.00 to 6.00
SMARCA4 percent degradation at 0.1 µM (SMARCA4): 17%

Cc1ncsc1-c1ccc(CNC(=O)[C@@H]2C[C@@H](O)CN2C(=O)[C@@H](NC(=O)CN2CCN(c3cc(-c4ccccc4O)nnc3N)CC2)C(C)(C)C)cc1 [Compound 39]
SMARCA2 Percent degradation @ 100 nM (SMARCA2 [1]): 97%
pIC50 (NCI-H929 cells): > 6.00

Nc1nnc(-c2ccccc2O)cc1N1CCN(CC(=O)Nc2cccc3c2C(=O)N(C2CCC(=O)NC2=O)C3=O)CC1 (stereo not drawn) [Compound 41]
SMARCA2 Percent degradation @ 100 nM (SMARCA2 [1]): 64%
SMARCA4 percent degradation at 0.1 µM (SMARCA4): 60%

Cc1ncsc1-c1ccc([C@H](C)NC(=O)[C@@H]2C[C@@H](O)CN2C(=O)[C@@H](NC(=O)CN2CCN(c3cc(-c4ccccc4F)nnc3N)CC2)C(C)(C)C)cc1 [Compound 44]
SMARCA2 Percent degradation @ 100 nM (SMARCA2 [1]): 93%
pIC50 (NCI-H929 cells): 5.00 to 6.00
SMARCA4 percent degradation at 0.1 µM (SMARCA4): 82%

CC(=O)O[C@@H]1C[C@@H](C(=O)N[C@@H](C)c2ccc(-c3scnc3C)cc2)N(C(=O)[C@@H](NC(=O)CN2CCN(c3cc(-c4ccccc4O)nnc3N)CC2)C(C)(C)C)C1 [Compound 47, (3R,5S)-1-((S)-2-(2-(4-(3-amino-6-(2-hydroxyphenyl)pyridazin-4-yl)piperazin-1-yl)acetamido)-3,3-dimethylbutanoyl)-5-(((S)-1-(4-(4-methylthiazol-5-yl)phenyl)ethyl)carbamoyl)pyrrolidin-3-yl acetate]
SMARCA2 Percent degradation @ 100 nM (SMARCA2 [1]): 87%
SMARCA4 Percent degradation @ 100 nM (SMARCA4): 87%

CC(=O)O[C@@H]1C[C@@H](C(=O)NCc2ccc(-c3scnc3C)cc2)N(C(=O)[C@@H](NC(=O)CN2CCN(c3cc(-c4ccccc4O)nnc3N)CC2)C(C)(C)C)C1 [Compound 48, (3R,5S)-1-((S)-2-(2-(4-(3-amino-6-(2-hydroxyphenyl)pyridazin-4-yl)piperazin-1-yl)acetamido)-3,3-dimethylbutanoyl)-5-((4-(4-methylthiazol-5-yl)benzyl)carbamoyl)pyrrolidin-3-yl acetate]
SMARCA2 Percent degradation @ 100 nM (SMARCA2 [1]): 5.4%
SMARCA4 Percent degradation @ 100 nM (SMARCA4): 28%

Cc1ncsc1-c1ccc([C@H](C)NC(=O)[C@@H]2C[C@@H](O)CN2C(=O)[C@@H](NC(=O)C(C)N2CCN(c3cc(-c4ccccc4O)nnc3N)CC2)C(C)(C)C)cc1 (stereo partly drawn) [Compound 56, (2S,4R)-1-((2S)-2-(2-(4-(3-amino-6-(2-hydroxyphenyl)pyridazin-4-yl)piperazin-1-yl)propanamido)-3,3-dimethylbutanoyl)-4-hydroxy-N—((S)-1-(4-(4-methylthiazol-5-yl)phenyl)ethyl)pyrrolidine-2-carboxamide]
SMARCA2 Percent degradation @ 100 nM (SMARCA2 [1]): 99%
pIC50 (NCI-H929 cells): > 6.00
SMARCA4 percent degradation at 0.1 µM (SMARCA4): 100%

Cc1ncsc1-c1ccc(C(NC(=O)[C@@H]2C[C@@H](O)CN2C(=O)[C@@H](NC(=O)CC2CCN(c3cc(-c4cccc(F)c4O)nnc3N)CC2)C(C)(C)C)C(F)(F)F)cc1 (stereo partly drawn) [Compound 76, (2S,4R)-1-((S)-2-(2-(1-(3-amino-6-(3-fluoro-2-hydroxyphenyl)pyridazin-4-yl)piperidin-4-yl)acetamido)-3,3-dimethylbutanoyl)-4-hydroxy-N-(2,2,2-trifluoro-1-(4-(4-methylthiazol-5-yl)phenyl)ethyl)pyrrolidine-2-carboxamide]
SMARCA2 Percent degradation @ 100 nM (SMARCA2 [1]): 90%
SMARCA4 percent degradation at 0.1 µM (SMARCA4): 12%

Cc1ncsc1-c1ccc([C@H](C)NC(=O)[C@@H]2C[C@@H](O)CN2C(=O)[C@@H](NC(=O)CN2CCN(c3cc(-c4ccccc4O)nnc3N)CC2)C(C)C)cc1 [Compound 79, (2S,4R)-1-((2-(4-(3-amino-6-(2-hydroxyphenyl)pyridazin-4-yl)piperazin-1-yl)acetyl)-L-valyl)-4-hydroxy-N—((S)-1-(4-(4-methylthiazol-5-yl)phenyl)ethyl)pyrrolidine-2-carboxamide]
SMARCA2 Percent degradation @ 100 nM (SMARCA2 [1]): 99%
pIC50 (NCI-H929 cells): > 6.00
SMARCA4 percent degradation at 0.1 µM (SMARCA4): 99%

Cc1ncsc1-c1ccc([C@H](C)NC(=O)[C@@H]2C[C@@H](O)CN2C(=O)[C@@H](NC(=O)C(C)(C)N2CCN(c3cc(-c4ccccc4O)nnc3N)CC2)C(C)(C)C)cc1 [Compound 87]
SMARCA2 Percent degradation @ 100 nM (SMARCA2 [1]): 83%
pIC50 (NCI-H929 cells): > 6.00
SMARCA4 percent degradation at 0.1 µM (SMARCA4): 93%

Cc1ncsc1-c1ccc([C@H](C)NC(=O)[C@@H]2C[C@@H](O)CN2C(=O)[C@@H](NC(=O)CC2CCN(c3cc(-c4cccc(F)c4O)nnc3N)CC2)C(C)(C)C)cc1 [Compound 98]
SMARCA2 Percent degradation @ 100 nM (SMARCA2 [1]): 88%
pIC50 (NCI-H929 cells): > 6.00
SMARCA4 percent degradation at 0.1 µM (SMARCA4): 99%

Cc1ncsc1-c1ccc([C@H](C)NC(=O)[C@@H]2C[C@@H](O)CN2C(=O)[C@@H](NC(=O)CC2CCN(c3cc(-c4cc(F)ccc4F)nnc3N)CC2)C(C)(C)C)cc1 [Compound 100]
SMARCA2 @ 100 nM (% SMARCA2 degradation) (SMARCA2 [2]): 9%

Cc1ncsc1-c1ccc([C@H](C)NC(=O)[C@@H]2C[C@@H](O)CN2C(=O)[C@@H](NC(=O)CCCCCCCCC(=O)N2CCN(c3cc(-c4ccccc4O)nnc3N)CC2)C(C)(C)C)cc1 [Compound 109]
SMARCA2 Percent degradation @ 100 nM (SMARCA2 [1]): 100%
pIC50 (NCI-H929 cells): > 6.00
SMARCA4 percent degradation at 0.1 µM (SMARCA4): 38%

CO[C@@H]1C[C@@H](C(=O)N[C@@H](C)c2ccc(-c3scnc3C)cc2)N(C(=O)[C@@H](NC(=O)CN2CCN(c3cc(-c4ccccc4O)nnc3N)CC2)C(C)(C)C)C1 [Compound 117]
SMARCA2 Percent degradation @ 100 nM (SMARCA2 [1]): 45.4%
pIC50 (NCI-H929 cells): 5.00 to 6.00
SMARCA4 percent degradation at 0.1 µM (SMARCA4): 47%

Cc1ncsc1-c1ccc([C@H](C)NC(=O)[C@@H]2C[C@@H](O)CN2C(=O)[C@H](C)NC(=O)CN2CCN(c3cc(-c4ccccc4O)nnc3N)CC2)cc1 [Compound 118]
SMARCA2 Percent degradation @ 100 nM (SMARCA2 [1]): 20.2%
pIC50 (NCI-H929 cells): < 5.00
